From paper PMC6627374, “Effects of the Pentapeptide P33 on Memory and Synaptic Plasticity in APP/PS1 Transgenic Mice: A Novel Mechanism Presenting the Protein Fe65 as a Target” (International Journal of Molecular Sciences, 2019)
Where a SMILES comes first, the peptide text is derived from it.

Experiments:
human APP = assay: Western blot, APP level in brain (6E10); assay type: in vivo, human APP in APP/PS1 transgenic mice; conditions: APP/PS1 mice; 5 mg∙kg^−1 i.p., five days per week, six months; HC and CTX
Protocol: (§1) For this study, three-month-old male and female WT and APP/PS1 mice (n = 37) were used. Four groups were defined: WT-vehicle (physiological saline) (male n = 4; female n = 6), WT-P33 (male n = 6; female n = 5), APP/PS1-vehicle (male n = 3; female n = 5), and APP/PS1-P33 (male n = 6; female n = 2). Animals were subjected to intraperitoneal (i.p.) injections of P33 (5 mg∙kg^−1) for five days per week, over a course of six months. The mice were kept in groups under constant temperature (23 ± 0.5 °C), lighting (12-h/12-h light/dark cycle, lights on at 7:00 a.m.), and humidity (~50%). Standard mouse chow and tap water were supplied ad libitum. All behavioral experiments were performed in the light period. Handling was done daily at the same time.
Nine-month-old mice (three animals per group) were euthanized via cervical dislocation. […] To quantify the level of Aβ in the mice, we used a sandwich ELISA Kit (Innotest Amyloid-[…]) from Innogenetics (Gent, Belgium), following the instructions of the manufacturer. The absorbance values were measured at 450 nm on a 96-well plate reader (NOVOstar OPTIMA, BMG Labtech, Offenburg, Germany). […]
(§2) The results of spine density and immunohistochemistry experiments were calculated with one-way ANOVA followed by Fisher’s LSD post hoc tests. […] Data were analyzed with SPSS (IBM SPSS Statistics 24), and were expressed as the mean ± standard error of the mean (SEM). […]

[1] = test system: APP/PS1 mice and C57BL/6 wild-type (WT) mice; assay: Morris water maze (MWM), spatial learning and memory; assay type: in vivo, mouse; conditions: for intersection area with vehicle group (bootstrap 2D contours): vehicle vs P33, 90% contours
Protocol: as §1
The experiment lasted for five days, and was conducted on every occasion in the light period. Mice were tested twice every day when they were allowed to swim until they found the platform. […] Four different starting points were used during the experiment; starting points were changed randomly during the tests. Trajectories of the mice were recorded with a video camera fixed on the ceiling, equipped with the software EthoVision XT8 (Noldus Information Technology, The Netherlands, 2011). The tracking system calculated the time to reach the platform, swimming speed, length of the swimming path (distance), and percentage time spent in each of the four virtual quadrants during the trials.
Behavioral data were analyzed by mixed ANOVA, followed by Fisher’s LSD post hoc tests for multiple comparisons. The classical and modified ANOVA data evaluation methods applied for the raw measurements could detect only some significant effects without explaining their positions. Convenient post hoc analysis methods, like Student’s t-statistics, need a Gaussian distribution of the analysis data. Additionally, only the probability of the false positive decision error can be set up, and the probability of the false negative decision error remains unknown. Therefore, we developed and used nonparametric statistics. The one-response variable data (swimming times) were used to generate a two-variable model: (1) the reciprocal of the slope of the fitted straight line between the swimming time and the days (its negative values close to zero indicate an improvement in the memory and learning functions of the mice from day to day); (2) swimming time data of the last day (closeness to zero indicates an effective learning process). The two variables were combined, and evaluating them together gave more reliable multiple statistical results. […]

human Aβ1–42 = assay: ELISA, soluble Aβ1–42 in HC and CTX; assay type: in vivo, human Aβ1–42 in APP/PS1 transgenic mice; conditions: APP/PS1 mice; 5 mg∙kg^−1 i.p., six months
Protocol: as §1
Nine-month-old mice (three animals per group) were euthanized via cervical dislocation. […] To quantify the level of Aβ in the mice, we used a sandwich ELISA Kit (Innotest Amyloid-[…]) from Innogenetics (Gent, Belgium), following the instructions of the manufacturer. The absorbance values were measured at 450 nm on a 96-well plate reader (NOVOstar OPTIMA, BMG Labtech, Offenburg, Germany).
as §2

`C[C@@H](N)C(=O)N1CCC[C@@H]1C(=O)N[C@H](C)C(=O)N1CCC[C@@H]1C(=O)N[C@H](CCC(=O)O)C(N)=O` [P33] (HELM PEPTIDE1{[dA].[dP].[dA].[dP].[dE].[am]}$$$$V2.0) was tested, and the “APP level, effect of P33 (in words)” value (human APP) was “did not change with the P33-treatment”, the “permutation test of swimming times vs randomness (in words)” value ([1]; APP/PS1-P33, 50,000 resamples, 1/m and yend) was “significant improvement, as the randomness of the measurements was drastically decreased” and the “intersection area with vehicle group (bootstrap 2D contours)” value ([1]; APP/PS1 groups, % of total areas of both, 50,000 resamples) was “approximately 2%”. For the same molecule, the “latency to find the platform, effect of P33 (in words)” value ([1]; APP/PS1 mice, 5 mg∙kg^−1 i.p., six months, MWM five days) was “seemed to have a positive effect on their learning abilities”, the “intersection area with vehicle group (bootstrap 2D contours)” value ([1]; WT groups, % of total area of P33 treatment (vehicle 32%), 50,000 resamples) was 89% and the “soluble Aβ1–42, effect of P33 (in words)” value (human Aβ1–42) was “decreased level of Aβ1–42 in the APP/PS1 mice”.
